For 5 compounds, inhibition results are on record in US8288367B2, “Substituted estratriene derivatives as 17BETA HSD inhibitors” (Solvay Pharmaceuticals GmBH, priority 2006, dated 2012).

What is called inhibition is the change of the read-out against control, counted positive when it falls.

The target in assay [1] is T1, 17β-HSD3 enzyme (Homo sapiens, UniProt P37058).
T1 construct: expressed in transfected cells; host or cells: MCF-7 cell lines stably expressing 17β-HSD3
T1 sequence (P37058 1-310): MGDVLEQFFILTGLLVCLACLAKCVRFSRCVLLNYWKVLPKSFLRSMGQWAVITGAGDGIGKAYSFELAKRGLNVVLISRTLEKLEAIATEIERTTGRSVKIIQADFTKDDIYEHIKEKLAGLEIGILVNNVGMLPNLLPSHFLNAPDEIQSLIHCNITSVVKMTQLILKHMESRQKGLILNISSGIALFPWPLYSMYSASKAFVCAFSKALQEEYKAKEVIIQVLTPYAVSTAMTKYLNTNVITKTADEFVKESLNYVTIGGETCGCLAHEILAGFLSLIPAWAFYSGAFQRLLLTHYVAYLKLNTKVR
Kind of assay: Inhibition of 17β-HSD type 3 enzyme in MCF-7 cells stably expressing 17β-HSD3 (HPLC). The class given is cell-based. The conditions noted are these: MCF7, MCF-7 cells expressing 17β-HSD3, 2 nM androstenedione; for inhibition at 1 µM: 1 μM compound; for inhibition at 10 µM: 10 μM compound. The protocol:
The compounds were screened in respect of 17β-HSD3 enzyme activity in vitro on established MCF-7 cell lines, each stably expressing the 17β-HSD3 enzyme. The interconversion of substrate by 17β-HSD3 and the 17β-HSD3 inhibiting activity of chemical compounds in these cell lines were detected by HPLC system.
Varying amounts of the test compounds were incubated in the growth medium of the 17β-HSD3 expressing cells together tritium labeled androstenedione (2 nM). The medium samples were removed after exact incubation time and the reaction is stopped by trichloroacetic acid (TCA). The samples were analyzed by HPLC-coupled flow scintillation analysis.
Conversion: The 17β-HSD3 inhibiting activity of an individual test compound was calculated by comparing the conversion of a control sample without any test compound (referred to as “Negative Control”) to the (reduced) conversion of the test sample containing the particular compound to be tested (referred to as “Test Sample”).

Assay [2] deals with T2, recombinant human 17β-HSD1 (Homo sapiens, UniProt P14061).
T2 construct: made in house; host or cells: Sf9 insect cells (baculovirus, Bac to Bac Expression System)
T2 sequence (P14061 1-328): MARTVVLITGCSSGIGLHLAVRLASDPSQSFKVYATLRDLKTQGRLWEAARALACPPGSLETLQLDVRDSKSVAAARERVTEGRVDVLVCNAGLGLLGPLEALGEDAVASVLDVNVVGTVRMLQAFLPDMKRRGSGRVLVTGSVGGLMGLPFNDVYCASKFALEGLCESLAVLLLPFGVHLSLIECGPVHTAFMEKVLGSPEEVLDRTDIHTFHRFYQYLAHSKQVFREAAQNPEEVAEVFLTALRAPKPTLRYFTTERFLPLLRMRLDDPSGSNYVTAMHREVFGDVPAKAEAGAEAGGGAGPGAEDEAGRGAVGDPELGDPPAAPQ
In words: Recombinant 17β-HSD1 assay (HPLC, 3H-estrone conversion). The conditions noted are these: 30 nM estrone, 1 mM NADPH, 30 min RT, read-out: Inhibition of rec. 17β-HSD1; for inhibition at 0.1 µM: 100 nM compound; for inhibition at 1 µM: 0.5 h, 1 μm compound. The class given is biochemical. The essentials: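 Sf9-expressed human 17β-HSD1 homogenate (0.1 μg/ml) in 20 mM KH2PO4 pH 7.4 with 30 nM estrone plus 3H-estrone tracer and 1 mM NADPH, 30 min at RT, inhibitors at 1 μM or 0.1 μM. Stopped with TCA; estrone and estradiol separated by reverse-phase HPLC with flow scintillation; % inhibition = 100 − % conversion.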

Assay [3] has as its target T3, recombinant human 17β-HSD2 (Homo sapiens, UniProt P37059).
T3 construct: made in house; host or cells: Sf9 insect cells (baculovirus, Bac to Bac Expression System)
T3 sequence (P37059 1-387): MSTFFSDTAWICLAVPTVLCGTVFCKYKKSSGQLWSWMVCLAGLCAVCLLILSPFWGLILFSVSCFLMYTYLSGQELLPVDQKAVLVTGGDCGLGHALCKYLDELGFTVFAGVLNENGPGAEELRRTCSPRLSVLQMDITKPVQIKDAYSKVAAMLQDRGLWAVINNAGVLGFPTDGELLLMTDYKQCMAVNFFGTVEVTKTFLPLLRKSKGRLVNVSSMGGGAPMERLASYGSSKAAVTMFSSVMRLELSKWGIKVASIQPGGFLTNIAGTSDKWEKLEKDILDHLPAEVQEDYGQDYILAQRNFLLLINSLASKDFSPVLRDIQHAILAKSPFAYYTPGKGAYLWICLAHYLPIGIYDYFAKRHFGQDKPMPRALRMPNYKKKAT
In words: Recombinant 17β-HSD2 assay (HPLC, 3H-estradiol conversion). The class given is biochemical. The conditions noted are these: 50 nM estradiol, 1 mM β-NAD, read-out: Inhibition of rec. 17β-HSD2; for inhibition at 0.1 µM: 100 nM compound; for inhibition at 1 µM: 1 μm compound. In a few lines: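 Homogenate of Sf9 cells expressing recombinant human 17β-HSD2 (6 μg/ml protein) incubated with 50 nM estradiol plus 3H-estradiol tracer and 1 mM β-NAD. Estrone and estradiol radioactivity separated by HPLC; % inhibition = 100 − % conversion to estrone.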

On to `C[C@]12CC[C@@H]3c4ccc(B(O)O)cc4CC[C@H]3[C@@H]1[C@@H](CCCC(=O)NC1CCCCC1)CC2=O` [Compound 17, [15alpha-[4-(cyclohexylamino)-4-oxobutyl]-17-oxoestra-1(10),2,4-trien-3-yl]boronic acid], for which the inhibition at 1 µM in assay [1] was found to be 6%; in assay [2] it was 31%; in assay [3] it was 1.8%. In addition, in assay [1], the inhibition at 10 µM was 45%. Moreover, the inhibition at 0.1 µM in assay [2] was 24%; in assay [3], -5.4%.

Turning to `C[C@]12CC[C@@H]3c4ccc(B(O)O)cc4CC[C@H]3[C@@H]1[C@H](CCC(=O)NCc1ccccc1)CC2(F)F` [Compound 63, [15beta-[3-(benzylamino)-3-oxopropyl]-17,17-difluoroestra-1(10),2,4-trien-3-yl]boronic acid], in assay [1], the inhibition at 1 µM was 41% and the inhibition at 10 µM was found to be 88%. Also, in assay [2], the inhibition at 0.1 µM is 51% and the inhibition at 1 µM worked out at 66%. Further, in assay [3], the inhibition at 0.1 µM amounted to 12.8% and the inhibition at 1 µM was 16.9%.

As for `CCN(CC)C(=O)CC[C@@H]1CC(F)(F)[C@@]2(C)CC[C@@H]3c4ccc(B(O)O)cc4CC[C@H]3[C@H]12` [Compound 71, [15beta-[3-(diethylamino)-3-oxopropyl]-17,17-difluoroestra-1(10),2,4-trien-3-yl]boronic acid], in assay [1], the inhibition at 1 µM was determined as 31% and the inhibition at 10 µM was found to be 60%. In assay [2], the inhibition at 0.1 µM came out at 78% and the inhibition at 1 µM was found to be 85%. Moreover, in assay [3], the inhibition at 0.1 µM came to 7.9% and the inhibition at 1 µM was determined as 16.3%.

As for `C[C@]12CC[C@@H]3c4ccc(B(O)O)cc4CC[C@H]3[C@@H]1[C@@H](CCCC(=O)Nc1ccc3c(c1)OCO3)CC2=O` [Compound 13, [15alpha-[4-(1,3-benzodioxol-5-ylamino)-4-oxobutyl]-17-oxoestra-1(10),2,4-trien-3-yl]boronic acid], the figures for the inhibition at 1 µM in assay [1], in assay [2] and in assay [3] were 18%, 52% and 2%, respectively. Further, the inhibition at 10 µM in assay [1] was 22%. Moreover, the inhibition at 0.1 µM in assay [2] was 27%; in assay [3], -7.6%.

For the compound `C[C@]12CC[C@@H]3c4ccc(Nc5ccc6c(c5)S(=O)(=O)C=C6)cc4CC[C@H]3[C@@H]1[C@@H](CCCC(=O)N1CCOCC1)CC2=O` [Compound 91, 3-[(1,1-dioxido-1-benzothien-6-yl)amino]-15alpha-(4-morpholin-4-yl-4-oxobutyl)estra-1(10),2,4-trien-17-one], in assay [1], the inhibition at 1 µM stood at 7% and the inhibition at 10 µM turned out to be 52%. Further, in assay [2], the inhibition at 0.1 µM was determined as 36% and the inhibition at 1 µM came out at 69%. In addition, in assay [3], the inhibition at 0.1 µM came out at 0.7% and the inhibition at 1 µM is 5.7%.
